# Entries after “also recorded” stand apart in the source; their conditions may differ.
# How the values were obtained:
# [1] = biological target: T1, GPR119 (Homo sapiens, UniProt Q8TDV5); assay: β-arrestin cell-based GPCR assay (DiscoveRx), agonist mode, GPR119; conditions: for interaction with GPR119: GPCR screen and dose response, FIG. 8
# T1 sequence (Q8TDV5 1-335): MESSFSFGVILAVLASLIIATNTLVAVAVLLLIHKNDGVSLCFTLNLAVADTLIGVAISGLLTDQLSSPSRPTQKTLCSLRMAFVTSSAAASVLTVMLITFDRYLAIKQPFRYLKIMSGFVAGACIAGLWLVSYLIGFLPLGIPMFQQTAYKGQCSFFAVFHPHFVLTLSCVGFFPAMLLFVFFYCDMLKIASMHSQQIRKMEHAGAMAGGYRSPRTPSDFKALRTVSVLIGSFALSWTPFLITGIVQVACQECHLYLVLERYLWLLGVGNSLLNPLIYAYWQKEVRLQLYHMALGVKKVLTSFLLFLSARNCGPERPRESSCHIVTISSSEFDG
# Method: (§1) The major N-acyl amide analog isolated from each family was assayed for agonist and antagonist activity against a panel of 240 human GPCRs (FIG. 3 and FIG. 8). […] The maximal activation of GPR119 and S1PR4 by the bacterial N-acyl amides was similar to the endogenous ligand (GPR119 100%, S1PR4 80%). Interactions between the bacterial N-acyl amides and GPCRs were also specific (FIG. 3A and FIG. 3B).
# (§2) For each of the 6 N-acyl amide families (1-6) the analogue produced at the highest level in the heterologous expression experiments was assayed for GPCR activity. In the case of family 4 the major lysine analogue (N-3-hydroxyoleoyl lysine) was screened. Using β-arrestin cell-based assays at 10 uM ligand concentration, agonist and antagonist activity was assessed by DiscoveRx against 168 GPCRs with known ligands as well as 72 orphan GPCRs. […] Synthetic N-acyl amides were assayed in the same fashion.
# [2] = tested on: GLUTag cells; assay: GLP-1 release from GLUTag cells; type: cell-based, Murine; conditions: equimolar concentrations, 2 hours
# From the text: (§3) GPR119 is the most extensively studied of the GPCRs activated by bacterial N-acyl amides (FIG. 4). Mechanisms that link endogenous GPR119 agonists (OEA, 2-OG) to changes in host phenotype are well defined as a result of the exploration of GPR119 as a therapeutic target for the treatment of diabetes and obesity. In fact, synthetic small molecule GPR119 agonists are in clinical trials as treatment for both diseases (Ritter et al., 2016, J Med Chem 59:3579-92; Nunez et al., 2014, PLoS One 9:e92494; Ha et al., 2014, Arch Pharm Res 37:671-8; Katz et al., 2012, Diabetes Obes Metab 14:709-16). GPR119 agonists are thought to affect diverse metabolic functions, primarily glucose homeostasis but also gastric emptying and appetite, in vivo through GPR119-dependent hormone release from enteroendocrine cells (GLP-1, GIP, PYY) and pancreatic β-cells (insulin) (Flock et al., 2011, Endorinol 152:374-83; Overton et al., 2006, Cell Metab 3:167-75; Chu et al., 2007, Endocrinol 148:2601-9; Chu et al., 2008, Endocrinol 149:2038-47; Lauffer et al., 2009, Diabetes 58:1058-66; Serrano et al., 2011, Neuropharmacol 60:593-601). Murine enteroendocrine GLUTag cells have been used as a model system for measuring the ability of potential GPR119 agonists to induce GLP-1 release. […] To provide an orthogonal measurement of GPR119 activation by N-acyl serinols, HEK293 cells were stably transfected with a GPR119 expression construct.
# Oleoyl ethanolamide and 2-oleoyl glycerol were purchased from Cayman Chemical Company and resuspended in DMSO to a concentration of 10 mM. N-oleoyl serinol was isolated and purified in the same manner as N-palmitoyl serinol described above and confirmed by ^1H NMR and HRMS. N-oleoyl serinol was resuspended at 10 mM concentration in DMSO. GLUTag cells were obtained from the Mangelsdorf Lab (University of Texas Southwestern) with permission from Daniel Drucker (Mount Sinai Hospital Toronto). […] Media was then collected, centrifuged at 500×g (4° C.) for 5 minutes and cell free supernatant was analyzed for GLP-1 level using the Active GLP-1 V2 kit (Mesoscale Discovery). […]
# [3] = biological target: T2, sphingosine-1-phosphate receptor 4 (S1PR4) (Homo sapiens, UniProt O95977); assay: β-arrestin cell-based GPCR assay (DiscoveRx), agonist mode, S1PR4; conditions: for agonist activity at / interaction with S1PR4: GPCR screen
# T2 sequence (O95977 1-384): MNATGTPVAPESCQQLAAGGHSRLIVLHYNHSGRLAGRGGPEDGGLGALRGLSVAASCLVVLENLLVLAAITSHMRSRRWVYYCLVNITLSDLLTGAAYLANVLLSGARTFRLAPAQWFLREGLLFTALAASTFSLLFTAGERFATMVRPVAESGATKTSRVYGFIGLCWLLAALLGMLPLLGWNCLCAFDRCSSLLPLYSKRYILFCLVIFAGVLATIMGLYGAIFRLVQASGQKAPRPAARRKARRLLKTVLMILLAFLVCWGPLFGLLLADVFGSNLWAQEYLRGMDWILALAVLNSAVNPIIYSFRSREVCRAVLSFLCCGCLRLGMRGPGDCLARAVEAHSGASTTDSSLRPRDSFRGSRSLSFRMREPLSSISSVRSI
# Method: The major N-acyl amide analog isolated from each family was assayed for agonist and antagonist activity against a panel of 240 human GPCRs (FIG. 3 and FIG. 8).
# (§4) Using β-arrestin cell-based assays at 10 uM ligand concentration, agonist and antagonist activity was assessed by DiscoveRx against 168 GPCRs with known ligands as well as 72 orphan GPCRs. […] Synthetic N-acyl amides were assayed in the same fashion.
# [4] = biological target: S1PR1 (Homo sapiens, UniProt P21453); assay: β-arrestin GPCR screen, agonist mode, S1PR1; type: cell-based
# Method: as §4
# [5] = biological target: S1PR2 (Homo sapiens, UniProt O95136); assay: β-arrestin GPCR screen, agonist mode, S1PR2; type: cell-based
# Method: as §4
# [6] = biological target: S1PR3 (Homo sapiens, UniProt Q99500); assay: β-arrestin GPCR screen, agonist mode, S1PR3; type: cell-based
# Method: as §4
# [7] = biological target: PTGIR (Homo sapiens, UniProt P43119); assay: β-arrestin cell-based GPCR assay (DiscoveRx), antagonist mode, PTGIR
# Method: as §1, §2
# [8] = biological target: PTGER4 (Homo sapiens, UniProt P35408); assay: β-arrestin cell-based GPCR assay (DiscoveRx), antagonist mode, PTGER4
# Method: as §1, §2
# [9] = mice; cited from earlier work
# [10] = biological target: T1, GPR119; assay: cAMP secondary assay in ACTOne HEK293 cells transfected with GPR119; type: cell-based; parameters: expressed in transfected cells; host or cells: ACTOne HEK293 cells; conditions: for cellular cAMP concentration: HEK293 cells stably transfected with GPR119 vs native cells
# Method: FIG. 10 depicts a secondary assay of GPR119. ACTOne HEK293 cells (control) and ACTOne HEK293 cells transfected with GPR119 were exposed to equimolar concentrations of the endogenous GPR119 ligand oleoylethanolamide or the bacterial ligand N-oleoyl serinol. Relative fluorescent intensity was recorded for each ligand concentration compared to background signal. All data points were performed in quadruplicate and error bars represent SD around the mean. […] The DCEA [5-(N-Ethylcarboxamido)adenosine] control is presented to confirm cAMP response of the parental cell line.
# as §3
# [11] = biological target: T3, G2A (Homo sapiens, UniProt Q9UNW8); assay: β-arrestin cell-based GPCR assay (DiscoveRx), agonist mode, orphan receptor G2A; conditions: for activation of G2A: GPCR screen
# T3 sequence (Q9UNW8 1-380): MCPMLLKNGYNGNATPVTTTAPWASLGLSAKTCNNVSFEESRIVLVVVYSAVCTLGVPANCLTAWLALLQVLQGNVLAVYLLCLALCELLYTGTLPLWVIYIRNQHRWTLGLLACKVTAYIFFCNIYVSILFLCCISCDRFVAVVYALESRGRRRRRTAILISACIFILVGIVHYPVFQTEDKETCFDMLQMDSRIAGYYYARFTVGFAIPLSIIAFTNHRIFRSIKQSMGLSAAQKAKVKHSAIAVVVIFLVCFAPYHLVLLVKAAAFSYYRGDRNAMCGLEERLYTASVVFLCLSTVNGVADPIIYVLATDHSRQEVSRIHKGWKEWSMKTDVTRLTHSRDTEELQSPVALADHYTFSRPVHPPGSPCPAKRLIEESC
# Method: as §1, §2
# Chain of S1PR2 (O95136 whole entry): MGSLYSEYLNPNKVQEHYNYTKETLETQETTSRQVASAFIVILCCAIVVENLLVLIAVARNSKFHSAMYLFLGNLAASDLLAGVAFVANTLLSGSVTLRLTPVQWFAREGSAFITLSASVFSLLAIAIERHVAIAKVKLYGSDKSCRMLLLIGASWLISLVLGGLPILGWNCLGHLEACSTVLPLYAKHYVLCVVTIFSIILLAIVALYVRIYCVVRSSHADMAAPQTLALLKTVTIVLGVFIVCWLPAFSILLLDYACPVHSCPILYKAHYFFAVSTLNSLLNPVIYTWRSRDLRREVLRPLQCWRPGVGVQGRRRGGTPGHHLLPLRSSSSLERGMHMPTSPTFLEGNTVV
# Chain of PTGER4 (P35408 whole entry): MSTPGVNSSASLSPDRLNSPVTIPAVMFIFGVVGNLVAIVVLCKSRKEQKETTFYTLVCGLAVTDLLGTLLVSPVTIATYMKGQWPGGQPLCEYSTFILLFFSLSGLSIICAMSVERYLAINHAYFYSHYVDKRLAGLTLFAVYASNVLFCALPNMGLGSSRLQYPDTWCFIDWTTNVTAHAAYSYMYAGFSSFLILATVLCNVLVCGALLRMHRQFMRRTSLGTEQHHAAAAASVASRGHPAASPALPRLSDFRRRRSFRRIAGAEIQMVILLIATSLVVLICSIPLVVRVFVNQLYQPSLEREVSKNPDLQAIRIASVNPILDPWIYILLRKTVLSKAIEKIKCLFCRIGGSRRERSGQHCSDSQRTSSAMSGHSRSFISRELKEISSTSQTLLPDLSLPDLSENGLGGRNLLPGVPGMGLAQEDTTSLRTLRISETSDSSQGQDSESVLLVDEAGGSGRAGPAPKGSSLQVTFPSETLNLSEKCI
# Chain of S1PR3 (Q99500 whole entry): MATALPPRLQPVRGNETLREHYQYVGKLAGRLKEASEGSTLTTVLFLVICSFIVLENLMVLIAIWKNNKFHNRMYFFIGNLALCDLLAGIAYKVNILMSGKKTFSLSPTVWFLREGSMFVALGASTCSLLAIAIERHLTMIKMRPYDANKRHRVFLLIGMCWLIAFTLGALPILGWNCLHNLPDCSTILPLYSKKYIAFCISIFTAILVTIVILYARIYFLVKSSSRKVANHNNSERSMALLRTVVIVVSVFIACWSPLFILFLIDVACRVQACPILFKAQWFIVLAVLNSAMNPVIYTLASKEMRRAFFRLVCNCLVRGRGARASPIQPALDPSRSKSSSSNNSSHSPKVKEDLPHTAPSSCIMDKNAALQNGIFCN
# Chain of PTGIR (P43119 whole entry): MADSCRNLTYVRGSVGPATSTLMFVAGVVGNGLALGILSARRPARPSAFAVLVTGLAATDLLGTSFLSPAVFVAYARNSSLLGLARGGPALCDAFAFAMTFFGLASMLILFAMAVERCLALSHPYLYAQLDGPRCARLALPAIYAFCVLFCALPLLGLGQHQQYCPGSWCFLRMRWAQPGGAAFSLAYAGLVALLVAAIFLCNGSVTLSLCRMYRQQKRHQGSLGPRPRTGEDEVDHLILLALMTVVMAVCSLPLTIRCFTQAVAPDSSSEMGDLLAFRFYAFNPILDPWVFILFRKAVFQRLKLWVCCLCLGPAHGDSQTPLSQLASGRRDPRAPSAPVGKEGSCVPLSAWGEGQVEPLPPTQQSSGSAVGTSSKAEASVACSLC
# Chain of S1PR1 (P21453 whole entry): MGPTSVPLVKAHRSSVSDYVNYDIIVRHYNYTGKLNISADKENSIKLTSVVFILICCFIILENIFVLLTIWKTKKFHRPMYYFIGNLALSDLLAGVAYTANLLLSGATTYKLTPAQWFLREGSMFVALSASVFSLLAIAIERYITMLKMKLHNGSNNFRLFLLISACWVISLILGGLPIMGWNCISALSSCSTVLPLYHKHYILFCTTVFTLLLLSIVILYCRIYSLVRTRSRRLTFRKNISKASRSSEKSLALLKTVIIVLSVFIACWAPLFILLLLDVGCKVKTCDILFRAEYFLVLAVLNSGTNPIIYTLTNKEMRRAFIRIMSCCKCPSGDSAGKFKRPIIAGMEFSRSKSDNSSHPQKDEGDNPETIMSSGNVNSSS
smiles,measurement,setting,value
CCCCCCCCCCCCCCCC(=O)NC(CO)CO [N-palmitoyl serinol],interaction with GPR119,[1],interacts with GPR119
same,Emax,"[1]; relative to endogenous ligand, read-out: maximal activation of GPR119 compared with the endogenous ligand",100%
"CCCCCCCC/C=C\CCCCCCCC(=O)OC(CO)CO [Compound 2-OG, 2-oleoyl glycerol]",GLP-1 secretion,[2],induced GLP-1 secretion to the same magnitude
"CCCCCCCCCCCCCC(O)CC(=O)NC(CCCN)C(=O)O (stereo not shown) [N-3-hydroxypalmitoyl ornithine, N-3-OH-palmitoyl ornithine]",agonist activity at / interaction with S1PR4,[3],specific agonist of S1PR4; also recorded: interacts with S1PR4
same,Emax,"[3]; relative to endogenous ligand, read-out: maximal activation of S1PR4 compared with the endogenous ligand",80%
same,activation of S1PR1,[4],did not activate
same,activation of S1PR2,[5],did not activate
same,activation of S1PR3,[6],did not activate
"CCCCCCCCCCCC(O)CC(=O)OC(CCCCCCC)CC(=O)N[C@@H](CCC(N)=O)C(=O)O (stereo partly shown) [N-acyloxyacyl glutamine, 3-[(3-OH-myristoyl)oxy]decanoyl glutamine]",antagonism of PTGIR,[7]; antagonist screen,specifically antagonized
same,IC50,"[7]; in the presence of endogenous ligand, read-out: IC50, antagonist activity against PTGIR",15 µM
same,antagonism of PTGER4,[8]; antagonist screen,antagonized
same,IC50,"[8]; in the presence of endogenous ligand, read-out: IC50, antagonist activity against PTGER4",43 µM
"CCCCCCCC/C=C\CCCCCCCC(=O)NCCO [OEA, oleoylethanolamide]",EC50,"[1]; β-arrestin assay, dose response in duplicate, read-out: EC50, activation of GPR119",7 µM
same,GLP-1 secretion,[2],induced GLP-1 secretion to the same magnitude
same,blood glucose in OGTT after intravenous delivery,[9],fails to lower blood glucose
same,EC50,"[10]; HEK293 cells expressing GPR119, quadruplicate, read-out: EC50, cAMP response",5.1 µM
same,cellular cAMP concentration,[10],increased cellular cAMP concentrations in a GPR119 dependent fashion
"CCCCCCCCCCCCC/C=C/[C@@H](O)[C@@H](N)COP(=O)(O)O [Compound S1P, sphingosine-1-phosphate, reference compound]",agonist activity at / interaction with S1PR4,[3],activates
same,EC50,"[3]; β-arrestin assay, dose response in duplicate, read-out: EC50, activation of S1PR4",0.09 µM
same,activation of S1PR1,[4],activates
same,activation of S1PR2,[5],activates
same,activation of S1PR3,[6],activates
CCCCCCCCCCCCCC(=O)N[C@@H](C)C(=O)O [N-myristoyl alanine],EC50,"[11]; β-arrestin assay, dose response, read-out: EC50, activation of G2A",3 µM
CCCCCCCC/C=C\CCCCCCCC(=O)NC(CO)CO [N-oleoyl serinol],interaction with GPR119,[1],interacts with GPR119
same,maximum GPR119 activation compared with OEA,"[1]; β-arrestin assay, FIG. 5A",~2 fold
same,GLP-1 secretion,[2],induced GLP-1 secretion to the same magnitude
same,cellular cAMP concentration,[10],increased cellular cAMP concentrations in a GPR119 dependent fashion
CCCCCCCCCCCCCCCC(=O)NCC(=O)O [N-palmitoyl glycine],activation of G2A,[11],activates G2A
CCCCCCCCCCCCCC(O)CC(=O)NCC(=O)O (stereo not shown) [N-3-hydroxypalmitoyl glycine],activation of G2A,[11],activate G2A
CCCCCCCCCCCCCCCC(=O)N[C@@H](C)C(=O)O [N-palmitoyl alanine],activation of G2A,[11],activate G2A
CCCCCCCCCCCCCC(O)CC(=O)N[C@@H](CCCCN)C(=O)O (stereo partly shown) [N-3-hydroxypalmitoyl lysine],agonist activity at / interaction with S1PR4,[3],specific agonist of S1PR4; also recorded: interacts with S1PR4

# Source: US20200113950A1, “Human microbiota derived N-acyl amides for the treatment of human disease” (The Rockefeller University, priority 2017, published 2020)
